The molecules below were run against T1, his-galectin-3 (Homo sapiens, UniProt P17931) (assay: TR-FRET assay (in vitro galectin-3 binding inhibitory activity test)). Conditions: Table 1; compound at 20 μM; 60 nM his-galectin-3, 15 nM biotin-ASF; read-out: % Inhibitory activity (at 20 μM).
T1 construct: purchased Abcam
T1 sequence (P17931 whole entry): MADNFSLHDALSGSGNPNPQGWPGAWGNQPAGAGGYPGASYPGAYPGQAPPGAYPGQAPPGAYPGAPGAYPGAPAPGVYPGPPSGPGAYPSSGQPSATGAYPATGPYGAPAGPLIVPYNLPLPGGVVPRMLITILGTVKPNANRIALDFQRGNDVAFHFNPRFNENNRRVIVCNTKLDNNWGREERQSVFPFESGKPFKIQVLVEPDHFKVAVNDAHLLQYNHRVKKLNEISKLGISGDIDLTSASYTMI
Outline: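 Compound is premixed with his-galectin-3 (60 nM final), then biotin-ASF (15 nM), Tb anti-His antibody (2 nM) and streptavidin-d2 (20 nM) are added. After at least 3.5 hours at RT in HEPES/NaCl buffer with Tween 20 and BSA, TR-FRET is read at 615/665 nm. DMSO serves as the uninhibited control, ASF omission as background.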
For `O=C(CC1CCCC1)N[C@@H]1CCO[C@]12O[C@H](CO)[C@H](O)[C@H](n1cc(-c3cc(F)c(F)c(F)c3)nn1)[C@H]2O` [Compound A108, 2-cyclopentyl-N-((4R,5S,7R,8R,9S,10R)-8,10-dihydroxy-7-(hydroxymethyl)-9-(4-(3,4,5-trifluorophenyl)-1H-1,2,3-triazol-1-yl)-1,6-dioxaspiro[4.5]decan-4-yl)acetamide], the inhibition at 20 µM was 25 to 50%.
With `OC[C@H]1O[C@@]2(CCCCS2)[C@H](O)[C@@H](n2cc(-c3cc(F)c(F)c(F)c3)nn2)[C@H]1O` [Compound A109, (2R,3R,4S,5R,6R)-2-(hydroxymethyl)-4-(4-(3,4,5-trifluorophenyl)-1H-1,2,3-triazol-1-yl)-1-oxa-7-thiaspiro[5.5]undecane-3,5-diol] the inhibition at 20 µM was under 25%.
With `OC[C@H]1O[C@@]2(CCCNC2)[C@H](O)[C@@H](n2cc(-c3cc(F)c(F)c(F)c3)nn2)[C@H]1O` [Compound A110, (2R,3R,4S,5R,6R)-2-(hydroxymethyl)-4-(4-(3,4,5-trifluorophenyl)-1H-1,2,3-triazol-1-yl)-1-oxa-8-azaspiro[5.5]undecane-3,5-diol] the inhibition at 20 µM was under 25%.
In the case of `O=C(Cc1cccc2ccccc12)N[C@@H]1CCO[C@]12O[C@H](CO)[C@H](O)[C@H](n1cc(-c3cc(F)c(F)c(F)c3)nn1)[C@H]2O` [Compound A111, N-((4R,5S,7R,8R,9S,10R)-8,10-dihydroxy-7-(hydroxymethyl)-9-(4-(3,4,5-trifluorophenyl)-1H-1,2,3-triazol-1-yl)-1,6-dioxaspiro[4.5]decan-4-yl)-2-(naphthalen-1-yl)acetamide], the inhibition at 20 µM is reported as 25 to 50%.
`O=C(Cc1ccccc1Cl)N[C@@H]1CCO[C@]12O[C@H](CO)[C@H](O)[C@H](n1cc(-c3cc(F)c(F)c(F)c3)nn1)[C@H]2O` [Compound A112, 2-(2-chlorophenyl)-N-((4R,5S,7R,8R,9S,10R)-8,10-dihydroxy-7-(hydroxymethyl)-9-(4-(3,4,5-trifluorophenyl)-1H-1,2,3-triazol-1-yl)-1,6-dioxaspiro[4.5]decan-4-yl)acetamide] was tested, and the inhibition at 20 µM was 50 to 75%.
For `O=C(Cc1cccc(F)c1)N[C@@H]1CCO[C@]12O[C@H](CO)[C@H](O)[C@H](n1cc(-c3cc(F)c(F)c(F)c3)nn1)[C@H]2O` [Compound A113, N-((4R,5S,7R,8R,9S,10R)-8,10-dihydroxy-7-(hydroxymethyl)-9-(4-(3,4,5-trifluorophenyl)-1H-1,2,3-triazol-1-yl)-1,6-dioxaspiro[4.5]decan-4-yl)-2-(3-fluorophenyl)acetamide], the inhibition at 20 µM was 50 to 75%.
Work on `O=C(N[C@@H]1CCO[C@]12O[C@H](CO)[C@H](O)[C@H](n1cc(-c3cc(F)c(F)c(F)c3)nn1)[C@H]2O)C1(c2ccccc2)CC1` [Compound A114, N-((4R,5S,7R,8R,9S,10R)-8,10-dihydroxy-7-(hydroxymethyl)-9-(4-(3,4,5-trifluorophenyl)-1H-1,2,3-triazol-1-yl)-1,6-dioxaspiro[4.5]decan-4-yl)-1-phenylcyclopropanecarboxamide] yielded an inhibition at 20 µM of under 25%.
In the case of `O=C(Cc1ccc2ccccc2c1)N[C@@H]1CCO[C@]12O[C@H](CO)[C@H](O)[C@H](n1cc(-c3cc(F)c(F)c(F)c3)nn1)[C@H]2O` [Compound A115, N-((4R,5S,7R,8R,9S,10R)-8,10-dihydroxy-7-(hydroxymethyl)-9-(4-(3,4,5-trifluorophenyl)-1H-1,2,3-triazol-1-yl)-1,6-dioxaspiro[4.5]decan-4-yl)-2-(naphthalen-2-yl)acetamide], the inhibition at 20 µM is reported as 50 to 75%.
`COc1cccc(CC(=O)N[C@@H]2CCO[C@]23O[C@H](CO)[C@H](O)[C@H](n2cc(-c4cc(F)c(F)c(F)c4)nn2)[C@H]3O)c1` [Compound A116, N-((4R,5S,7R,8R,9S,10R)-8,10-dihydroxy-7-(hydroxymethyl)-9-(4-(3,4,5-trifluorophenyl)-1H-1,2,3-triazol-1-yl)-1,6-dioxaspiro[4.5]decan-4-yl)-2-(3-methoxyphenyl)acetamide] was tested, and the inhibition at 20 µM was 50 to 75%.
`O=C(Cc1ccc(Cl)cc1)N[C@@H]1CCO[C@]12O[C@H](CO)[C@H](O)[C@H](n1cc(-c3cc(F)c(F)c(F)c3)nn1)[C@H]2O` [Compound A117, 2-(4-chlorophenyl)-N-((4R,5S,7R,8R,9S,10R)-8,10-dihydroxy-7-(hydroxymethyl)-9-(4-(3,4,5-trifluorophenyl)-1H-1,2,3-triazol-1-yl)-1,6-dioxaspiro[4.5]decan-4-yl)acetamide] showed an inhibition at 20 µM of 50 to 75%.
Molecule `COc1cccc(C(=O)N[C@@H]2CCO[C@]23O[C@H](CO)[C@H](O)[C@H](n2cc(-c4cc(F)c(F)c(F)c4)nn2)[C@H]3O)c1` [Compound A118, N-((4R,5S,7R,8R,9S,10R)-8,10-dihydroxy-7-(hydroxymethyl)-9-(4-(3,4,5-trifluorophenyl)-1H-1,2,3-triazol-1-yl)-1,6-dioxaspiro[4.5]decan-4-yl)-3-methoxybenzamide] has an inhibition at 20 µM of over 75%.
With `O=C(N[C@@H]1CCO[C@]12O[C@H](CO)[C@H](O)[C@H](n1cc(-c3cc(F)c(F)c(F)c3)nn1)[C@H]2O)c1ccc(Oc2ccccc2)cc1` [Compound A120, N-((4R,5S,7R,8R,9S,10R)-8,10-dihydroxy-7-(hydroxymethyl)-9-(4-(3,4,5-trifluorophenyl)-1H-1,2,3-triazol-1-yl)-1,6-dioxaspiro[4.5]decan-4-yl)-4-phenoxybenzamide] the inhibition at 20 µM was 25 to 50%.
With `O=C(N[C@@H]1CCO[C@]12O[C@H](CO)[C@H](O)[C@H](n1cc(-c3cc(F)c(F)c(F)c3)nn1)[C@H]2O)c1ccccc1-c1ccccc1` [Compound A121, N-((4R,5S,7R,8R,9S,10R)-8,10-dihydroxy-7-(hydroxymethyl)-9-(4-(3,4,5-trifluorophenyl)-1H-1,2,3-triazol-1-yl)-1,6-dioxaspiro[4.5]decan-4-yl)-[1.1′ biphenyl]-2-carboxamide] the inhibition at 20 µM was 25 to 50%.
In the case of `O=C(N[C@@H]1CCO[C@]12O[C@H](CO)[C@H](O)[C@H](n1cc(-c3cc(F)c(F)c(F)c3)nn1)[C@H]2O)c1cccc(OC(F)(F)F)c1` [Compound A122, N-((4R,5S,7R,8R,9S,10R)-8,10-dihydroxy-7-(hydroxymethyl)-9-(4-(3,4,5-trifluorophenyl)-1H-1,2,3-triazol-1-yl)-1,6-dioxaspiro[4.5]decan-4-yl)-3-(trifluoromethoxy)benzamide], the inhibition at 20 µM is reported as 50 to 75%.
Work on `O=C(N[C@@H]1CCO[C@]12O[C@H](CO)[C@H](O)[C@H](n1cc(-c3cc(F)c(F)c(F)c3)nn1)[C@H]2O)c1cc2ccccc2o1` [Compound A123, N-((4R,5S,7R,8R,9S,10R)-8,10-dihydroxy-7-(hydroxymethyl)-9-(4-(3,4,5-trifluorophenyl)-1H-1,2,3-triazol-1-yl)-1,6-dioxaspiro[4.5]decan-4-yl)benzofuran-2-carboxamide] yielded an inhibition at 20 µM of 50 to 75%.
Molecule `O=C(N[C@@H]1CCO[C@]12O[C@H](CO)[C@H](O)[C@H](n1cc(-c3cc(F)c(F)c(F)c3)nn1)[C@H]2O)c1cc2ccccc2s1` [Compound A124, N-((4R,5S,7R,8R,9S,10R)-8,10-dihydroxy-7-(hydroxymethyl)-9-(4-(3,4,5-trifluorophenyl)-1H-1,2,3-triazol-1-yl)-1,6-dioxaspiro[4.5]decan-4-yl)benzo[b]thiophene-2-carboxamide] has an inhibition at 20 µM of 50 to 75%.
For `OC[C@H]1O[C@]2(OCC[C@H]2NCc2ccccc2O)[C@H](O)[C@@H](n2cc(-c3cc(F)c(F)c(F)c3)nn2)[C@H]1O` [Compound A125, (4R,5S,7R,8R,9S,10R)-4-((2-hydroxybenzyl)amino)-7-(hydroxymethyl)-9-(4-(3,4,5-trifluorophenyl)-1H-1,2,3-triazol-1-yl)-1,6-dioxaspiro[4.5]decane-8,10-diol], the inhibition at 20 µM was under 25%.
Work on `OC[C@H]1O[C@]2(OCC[C@H]2NCc2cc(Cl)ccc2O)[C@H](O)[C@@H](n2cc(-c3cc(F)c(F)c(F)c3)nn2)[C@H]1O` [Compound A126, (4R,5S,7R,8R,9S,10R)-4-((5-chloro-2-hydroxybenzyl)amino)-7-(hydroxymethyl)-9-(4-(3,4,5-trifluorophenyl)-1H-1,2,3-triazol-1-yl)-1,6-dioxaspiro[4.5]decane-8,10-diol] yielded an inhibition at 20 µM of 25 to 50%.
In the case of `OC[C@H]1O[C@]2(OCC[C@H]2NCc2cccc(Cl)c2O)[C@H](O)[C@@H](n2cc(-c3cc(F)c(F)c(F)c3)nn2)[C@H]1O` [Compound A127, (4R,5S,7R,8R,9S,10R)-4-((3-chloro-2-hydroxybenzyl)amino)-7-(hydroxymethyl)-9-(4-(3,4,5-trifluorophenyl)-1H-1,2,3-triazol-1-yl)-1,6-dioxaspiro[4.5]decane-8,10-diol], the inhibition at 20 µM is reported as 50 to 75%.
`OC[C@H]1O[C@]2(OCC[C@H]2NCc2ccc(Cl)o2)[C@H](O)[C@@H](n2cc(-c3cc(F)c(F)c(F)c3)nn2)[C@H]1O` [Compound A128, (4R,5S,7R,8R,9S,10R)-4-(((5-chlorofuran-2-yl)methyl)amino)-7-(hydroxymethyl)-9-(4-(3,4,5-trifluorophenyl)-1H-1,2,3-triazol-1-yl)-1,6-dioxaspiro[4.5]decane-8,10-diol] gave an inhibition at 20 µM of 50 to 75%.

Same assay, conditions: Table 3, found values; compound at 20 μM; 60 nM his-galectin-3, 15 nM biotin-ASF; read-out: % Inhibitory activity (at 20 μM)
`O=C(Cc1ccccc1Cl)N[C@@H]1CCO[C@]12O[C@H](CO)[C@H](O)[C@H](n1cc(-c3cc(F)c(F)c(F)c3)nn1)[C@H]2O` [Compound A112, 2-(2-chlorophenyl)-N-((4R,5S,7R,8R,9S,10R)-8,10-dihydroxy-7-(hydroxymethyl)-9-(4-(3,4,5-trifluorophenyl)-1H-1,2,3-triazol-1-yl)-1,6-dioxaspiro[4.5]decan-4-yl)acetamide] gave an inhibition at 20 µM of 53.8%.

Same assay, conditions: read-out: % Inhibitory activity (at 20 μM), Table 1; compound at 20 μM; 60 nM his-galectin-3, 15 nM biotin-ASF
`O=C(N[C@@H]1CCO[C@]12O[C@H](CO)[C@H](O)[C@H](n1cc(-c3cc(F)c(F)c(F)c3)nn1)[C@H]2O)c1cccc(Cl)c1` [Compound A119, 3-chloro-N-((4R,5S,7R,8R,9S,10R)-8,10-dihydroxy-7-(hydroxymethyl)-9-(4-(3,4,5-trifluorophenyl)-1H-1,2,3-triazol-1-yl)-1,6-dioxaspiro[4.5]decan-4-yl)benzamide] was tested, and the inhibition at 20 µM was over 75%.

Same assay, conditions: read-out: % Inhibitory activity (at 20 μM), Table 3, found values; compound at 20 μM; 60 nM his-galectin-3, 15 nM biotin-ASF
`O=C(N[C@@H]1CCO[C@]12O[C@H](CO)[C@H](O)[C@H](n1cc(-c3cc(F)c(F)c(F)c3)nn1)[C@H]2O)c1cccc(Cl)c1` [Compound A119, 3-chloro-N-((4R,5S,7R,8R,9S,10R)-8,10-dihydroxy-7-(hydroxymethyl)-9-(4-(3,4,5-trifluorophenyl)-1H-1,2,3-triazol-1-yl)-1,6-dioxaspiro[4.5]decan-4-yl)benzamide] gave an inhibition at 20 µM of 93.7%.

From US20250026778A1 (TIUMBIO CO., LTD., priority 2021, published 2025)
